Test results as given in patent US8512709B2, “Modified amyloid β peptide” (The Chemo-Sero-Therapeutic Research Institue, priority 2008, dated 2013).

Test system: Aβ peptide (1-40 amino acid sequence)
Test: Anti-Aβ IgG antibody titer of murine serum after immunization with Aβ peptides (ELISA on immobilized Aβ 1-40)
Type: in vivo, C57BL/6 mice
Conditions: for Antibody titer Animal No. 1 / Antibody titer Animal No. 2 / Antibody titer Animal No. 3 / Antibody titer Animal No. 4: C57BL/6 mouse serum, Day 7 from final 3rd immunization; for Antibody titer Animal No. 1 / Antibody titer Animal No. 2 / Antibody titer Animal No. 3 / Antibody titer Animal No. 4 / Antibody titer Mean: 100 μg/mouse; for Antibody titer Mean: mean of 4 mice, serum Day 7 from final 3rd immunization
[1] = Example 2, result in words on Table 2

Q: What does the source list for “DAEFRHDSGYEVHHQKLVCFFAEDVG [1-18Cys19-25AA, 25-amino acid Aβ peptide wherein cysteine is inserted between residues Nos. 18 and 19]”?
A: Antibody titer Animal No. 1 (Example 7): 1.5 ng/mL; Antibody titer Animal No. 2 (Example 7): 6.6 ng/mL; Antibody titer Animal No. 3 (Example 7): 71.4 ng/mL; Antibody titer Animal No. 4 (Example 7): 1398 ng/mL; Antibody titer Mean (Example 7): 369.4 ng/mL; induction of an antibody to Aβ (Example 7, result in words on Table 7): observed in one of four cases

Q: Which “Antibody titer Animal No. 1” value (Example 2) does the source give for “DAEFRHDSGYKGAIIGLMC [1-10•28-35AACys, 1-10+28-35-amino acid Aβ peptide with addition of Cysteine]” here?
A: Its value is 44 ng/mL.

Q: And the “Antibody titer Animal No. 2” value (Example 2)?
A: The value was 19 ng/mL.

Q: What about the “Antibody titer Animal No. 3” value (Example 2) of the same sequence?
A: The value was 8361 ng/mL.

Q: What about the “Antibody titer Animal No. 4” value (Example 2) of the same sequence?
A: The value was 220 ng/mL.

Q: What about the “Antibody titer Mean” value (Example 2) of the same sequence?
A: The value was 2161.0 ng/mL.

Q: What does the source list for “DAEFRHDSGYKGAIIGLMVGGVVC [1-10•28-40AACys, 1-10+28-40-amino acid Aβ peptide with addition of Cysteine]”?
A: Antibody titer Animal No. 1 (Example 2): 4560 ng/mL; Antibody titer Animal No. 2 (Example 2): 148622 ng/mL; Antibody titer Animal No. 3 (Example 2): 5118 ng/mL; Antibody titer Animal No. 4 (Example 2): 4988 ng/mL; Antibody titer Mean (Example 2): 40822.0 ng/mL; induction of an antibody to Aβ [1]: observed

Q: What does the source list for “DAEFRHDSGYEVHHQKLVCFFAEDVGSNK [1-18Cys19-28AA, 28-amino acid Aβ peptide wherein cysteine is inserted between residues Nos. 18 and 19]”?
A: Antibody titer Animal No. 1 (Example 6): 448154 ng/mL; Antibody titer Animal No. 2 (Example 6): 97146 ng/mL; Antibody titer Animal No. 3 (Example 6): 233411 ng/mL; Antibody titer Animal No. 4 (Example 6): 57794 ng/mL; Antibody titer Mean (Example 6): 209126.3 ng/mL

Q: “AEFRHDSGKGAIIGLMVGC (added cysteine) [2-9•28-37AACys, 2-9+28-37-amino acid Aβ peptide with addition of Cysteine]” was tested. Which “Antibody titer Animal No. 1” value (Example 4) did it give?
A: Its value is 7038 ng/mL.

Q: What about the “Antibody titer Animal No. 2” value (Example 4) of the same sequence?
A: Its value is 29489 ng/mL.

Q: What about the “Antibody titer Animal No. 3” value (Example 4) of the same sequence?
A: Its value is 16 ng/mL.

Q: And the “Antibody titer Animal No. 4” value (Example 4)?
A: Its value is 17 ng/mL.

Q: And the “Antibody titer Mean” value (Example 4)?
A: Its value is 9139.9 ng/mL.

Q: What about the “induction of an antibody to Aβ” value (Example 4, result in words on Table 4) of the same sequence?
A: The value was “observed”.

Q: Which results are given for “DAEFRHDSGYEVHHQKLVKGAIIGLMVGGVVIAC [1-18•28-42AACys, 1-18+28-42-amino acid Aβ peptide with addition of Cysteine]”?
A: Antibody titer Animal No. 1 (Example 5): 69336 ng/mL; Antibody titer Animal No. 2 (Example 5): 41211 ng/mL; Antibody titer Animal No. 3 (Example 5): 51611 ng/mL; Antibody titer Animal No. 4 (Example 5): 7004 ng/mL; Antibody titer Mean (Example 5): 42290.5 ng/mL

Q: For “DAEFRHDSGYEVHHQKLVCFFAEDVGSNKC [1-18Cys19-28AACys]”, which “Antibody titer Animal No. 1” value (Example 6) is on record?
A: Its value is 19908 ng/mL.

Q: What about the “Antibody titer Animal No. 2” value (Example 6) of the same sequence?
A: Its value is 361259 ng/mL.

Q: And the “Antibody titer Animal No. 3” value (Example 6)?
A: Its value is 4161 ng/mL.

Q: What about the “Antibody titer Animal No. 4” value (Example 6) of the same sequence?
A: The value was 29412 ng/mL.

Q: What about the “Antibody titer Mean” value (Example 6) of the same sequence?
A: The value was 103685.0 ng/mL.

Q: Which “Antibody titer Animal No. 1” value (Example 3) does the source give for “DAEFRHDSGKGAIIGLMVGC [1-9•28-37AACys, 1-9+28-37-amino acid Aβ peptide with addition of Cysteine]” here?
A: Its value is 398 ng/mL.

Q: And the “Antibody titer Animal No. 2” value (Example 3)?
A: Its value is 249 ng/mL.

Q: What about the “Antibody titer Animal No. 3” value (Example 3) of the same sequence?
A: Its value is 2772 ng/mL.

Q: What about the “Antibody titer Animal No. 4” value (Example 3) of the same sequence?
A: Its value is 8899 ng/mL.

Q: And the “Antibody titer Mean” value (Example 3)?
A: Its value is 3079.5 ng/mL.

Q: And the “induction of an antibody to Aβ” value (Example 3, result in words on Table 3)?
A: Its value is “observed”.

Q: “DAEFRHDSGYKGAIIGLMVGC [1-10•28-37AACys, 1-10+28-37-amino acid Aβ peptide with addition of Cysteine]” was tested. Which “Antibody titer Animal No. 1” value (Example 2) did it give?
A: Its value is 79708 ng/mL.

Q: And the “Antibody titer Animal No. 2” value (Example 2)?
A: Its value is 1531 ng/mL.

Q: And the “Antibody titer Animal No. 3” value (Example 2)?
A: Its value is 24694 ng/mL.

Q: And the “Antibody titer Animal No. 4” value (Example 2)?
A: The value was 100619 ng/mL.

Q: What about the “Antibody titer Mean” value (Example 2) of the same sequence?
A: Its value is 51638.0 ng/mL.

Q: What about the “induction of an antibody to Aβ” value [1] of the same sequence?
A: The value was “observed”.

Q: How did the “Antibody titer Animal No. 1” value (Example 3) turn out when “DAEFRHDSKGAIIGLMVGC [1-8•28-37AACys, 1-8+28-37-amino acid Aβ peptide with addition of Cysteine]” was run?
A: The value was 16 ng/mL.

Q: What about the “Antibody titer Animal No. 2” value (Example 3) of the same sequence?
A: The value was 16 ng/mL.

Q: What about the “Antibody titer Animal No. 3” value (Example 3) of the same sequence?
A: The value was 43 ng/mL.

Q: What about the “Antibody titer Animal No. 4” value (Example 3) of the same sequence?
A: The value was 31 ng/mL.

Q: What about the “Antibody titer Mean” value (Example 3) of the same sequence?
A: Its value is 26.4 ng/mL.

Q: Which results are given for “DAEFRHDSGYEVHHQKLVKGAIIGLMVG [1-18•28-37AA, reference compound]”?
A: Antibody titer Animal No. 1 (Example 8): 11 ng/mL; Antibody titer Animal No. 2 (Example 8): 11 ng/mL; Antibody titer Animal No. 3 (Example 8): 11 ng/mL; Antibody titer Animal No. 4 (Example 8): 9 ng/mL; Antibody titer Mean (Example 8): 10.5 ng/mL

Q: Which results are given for “DAEFRHDSGYEVHHQKLVKGAIIGLMVGC [1-18•28-37AACys]”?
A: Antibody titer Animal No. 1 (Example 8): 11 ng/mL; Antibody titer Animal No. 2 (Example 8): 9 ng/mL; Antibody titer Animal No. 3 (Example 8): 10 ng/mL; Antibody titer Animal No. 4 (Example 8): 13 ng/mL; Antibody titer Mean (Example 8): 10.75 ng/mL
